Assay results published in patent US6365350B1, “Method of DNA sequencing” (The Institute of Physical and Chemical Research, priority 1997, dated 2002).
“Also recorded” adds a separate entry of the source.

Assays:
[1] = target: T7 RNA polymerase (Escherichia phage T7, UniProt P00573); test: Incorporation rate of 3′-dNTP measured with radioactive [α-32P]3′-dNTPs; format: biochemical
Description: Further, incorporation rate of 3′-deoxyribonucleotides is different depending on the kind of RNA polymerase, and this should be considered for the selection of the combination. The incorporation rate of 3′-dNTP by T7 RNA polymerase was measured by using radioactive [α-^32p]3′-dNTPs.

[2] = tested on: 3′-dATP; test: Inhibition of [α-32P]UTP incorporation by 3′-dATP in transcription reaction (relative activity for 3′-dATP); format: biochemical; details: relative value of inhibition degree of [α-32P]UTP incorporation by 100 μM 3′-dATP; wild type normalized to 1.000; 37° C., 60 minutes
[3] = tested on: 3′-dATP, 3′-dGTP, 3′-dCTP, 3′-dUTP and derivatives thereof; details: for ability for incorporating 3′-dATP, 3′-dGTP, 3′-dCTP, 3′-dUTP and derivatives thereof: compared with wild type T7 RNA polymerase
Description: The T7 RNA polymerases introduced with mutations were purified, and their abilities of promoter sequence specific RNA synthesis and incorporation of ribonucleoside 5′-triphosphates including ATP, GTP, CTP, UTP and derivatives thereof, as well as 3′-DATP, 3′-dGTP, 3′-dCTP, 3′-dUTP and derivatives thereof were compared with those of wild type T7 RNA polymerase.
For two kinds of reaction mixture (with or without 3′-DATP, final concentration was 100 μM), the reaction was performed at 37° C. for 60 minutes. The whole reaction mixture was spotted on DE81 paper (Whatman), washed three times with phosphate buffer, and dried. The DE81 paper was placed into a scintillation vial, and radioactivity was measured using a scintillation counter (Beckman) for each reaction. Degree of inhibition of the [α-^32P]UTP incorporation was calculated by comparing the values obtained with and without 3′-dATP based on the measured radioactivity.

[4] = tested on: DNA containing T7 promoter; details: in vitro, compared with wild type T7 RNA polymerase
Description: Subsequent steps for purification of enzyme should be performed at a temperature lower than room temperature, preferably 0-5° C. unless otherwise indicated. The E. coli cells were washed with 10 times relative to the cell weight of a washing buffer (20 mM Tris-HCl, pH 8.1, 130 mM NaCl, 2 mM EDTANa2 at 25° C.), centrifuged again (5,000×g, 4° C., 10 minutes), suspended in 10 times in volume of a sonication buffer [50 mM Tris-HCl, pH 8.1, 100 mM NaCl, 0.1 mM EDTANa2, 5 mM dithiothreitol (DTT), 0.1 mM benzamidine, 30 μg/ml phenylmethylsulfonyl fluoride (PMSF), 10 μg/ml bacitracin], and sonicated by using Sonifier 450 (Branson) at 80W for more than 15 minutes to destroy the cells and reduce the viscosity of the cells. Then, the cell suspension is centrifuged at 12,000×g and 4° C. for ten minutes to remove the cell debris. 10% streptomycin sulfate was slowly added dropwise to the resulting supernatant to a final concentration of 2.0% with stirring, and stirring was further continued for 30 minutes. The supernatant was centrifuged at 12,000×g and 4° C. for ten minutes to remove precipitates, and slowly added with ammonium sulfate powder with stirring to form precipitates. In this case, precipitates were first collected by 30% saturation of ammonium sulfate (30% ammonium sulfate precipitation), and the resulting supernatant was further added with ammonium sulfate to 60% saturation with stirring to form precipitates again (30-60% ammonium sulfate precipitation). The supernatant was added again with ammonium sulfate powder to 90% ammonium sulfate saturation, and stirred at 4° C. for 1 hour, and the precipitates were collected by centrifugation. […] The.30′60% ammonium sulfate fraction was suspended in a small amount of column buffer (20 mM KPO4, pH 7.7, 100 mM NaCl, 1 mM DTT, 30 μg/ml PMSF), and desalted by dialysis against 500 ml of the same buffer for 16hours. The dialysate was applied on a heparin-Sepharose column of 5 ml volume (Pharmacia Biotech). Subsequently, the column was washed with the same buffer until any material absorbing ultraviolet ray at 280 nm disappeared, and eluted with a linear gradient of 0.1 M to 0.64 M NaCl in the same buffer of about 40 times volume of the column volume. The eluent was collected in test tubes as fractions of a suitable volume, and immediately subjected to SDS-acrylamide gel electrophoresis for protein analysis to identify fractions containing proteins around a molecular weight considered to be of the objective T7 RNA polymerase. […] The fractions containing the protein were collected, and desalted by dialysis against about 1 liter of the column buffer (20 mM KPO4, pH 7.7, 100 mM NaCl, 1 mM DTT, 30 μg/ml PMSF) for 16 hours. The fractions desalted by dialysis were applied to a Q-Sepharose column (Pharmacia Biotech) of 5 ml volume that preliminarily equilibrated with the same buffer, and the column was washed with the same buffer until any material absorbing ultraviolet ray at 280 nm disappeared, and eluted with a linear gradient of 0.1 M to 0.64 M NaCl in the same buffer of about 40 times volume of the column volume. The eluent was collected in test tubes as fractions of a suitable volume, and immediately subjected to SDS-acrylamide gel electrophoresis for protein analysis to identify fractions containing proteins around a molecular weight considered to be of the objective T7 RNA polymerase. […] The fractions containing the protein were collected, dialyzed against 500 ml of storage buffer (50% glycerol, 20 mM KPO4, pH 7.7, 100 mM NaCl, 1 mM DTT, 30 μg/ml PMSF) for 16 hours, and stored at −20° C. until use. In vitro RNA synthesis activity and activity of the contaminated ribonuclease of this sample were examined.

[5] = tested on: XR-3′dCTP(n=1); test: In vitro transcription with dye terminator XR-3′dCTP(n=1), sequence ladder (Example 1); format: biochemical; details: for incorporation efficiency for 3′-dCTP derivatives: peak intensities of sequence ladder vs wild type, FIGS. 30 and 31
Description: In vitro transcription reaction was performed by, for example, a partially modified version of the method of Melton, D. A., [Nucleic Acids Res., 12:7035-7056 (1984)].

[6] = tested on: plasmid vector pBluescriptKS(+) having T7 promoter; test: Sequencing reaction by the dye terminator method, n=1 terminators (Example 2); details: four dye terminators n=1, 25 units polymerase, 37° C., 1 hour
Description: Sequencing reaction by the dye terminator method was performed utilizing the purified mutant T7 RNA polymerases F644Y and L665P/F667Y, and the wild type T7 RNA polymerase as follows for comparison.
More specifically, the reaction was performed in a total reaction volume of 10 μl containing a plasmid vector pBluescriptKS(+) having T7 promoter linealized by the reaction with a restriction endonuclease PvuII or ScaI as a template, 250 μM of R6G-3′-dATP(n=1), 25 μM of R110-3′-dGTP(n=1), 150 μM of XR-3′-dCTP(n=1), 50 μM of TMR-3′-dUTP(n=1), which were the dye terminators synthesized in the above Synthesis Examples 49, 52, 46 and 43 respectively, as derivatives of 3′-dNTP, 500 μM of GTP and UTP, 250 μM of ATP and CTP, 8 mM of MgCl2, 2 mM of spermidine-(HCl)3, 5 mM of DTT, 40 mM of Tris/HCl pH 8.0 (BRL, Gibco) and 25 units of wild type T7 RNA polymerase (BRL, Gibco or Nippon Gene) or the mutant T7 RNA polymerase F644Y at 37° C. for 1 hour. Then, to remove the unreacted dye terminators remained in the reaction product, the transcription product was purified by gel filtration using a Sephadex G-50 column (Pharmacia Biotech), and the purification product was evaporated to dryness using a centrifugal evaporator.
The dried reaction product was dissolved in 6 μl of formamide/EDTA/Blue dextran loading buffer according to the instruction manual Ver.1.0 of ABI PRISM 377 DNA Sequencing System available from Perkin-Elmer Japan, and 2 μl of the solution was analyzed by ABI 377 DNA Sequencer and an analysis program using denatured gel for sequencing analysis which contained 6 M urea/4% Long Ranger™ acrylamide solution (FMC).

[7] = target: T1, T7 RNA polymerase (Gibco BRL) (Escherichia phage T7, UniProt P00573); test: Examination of 3′-deoxyterminators, termination pattern (Reference Example 8); format: biochemical; details: terminator 10 μM, 37° C., 30 minutes, FIGS. 42A and 42B
T1 construct: purchased Gibco BRL
T1 sequence (P00573 whole entry): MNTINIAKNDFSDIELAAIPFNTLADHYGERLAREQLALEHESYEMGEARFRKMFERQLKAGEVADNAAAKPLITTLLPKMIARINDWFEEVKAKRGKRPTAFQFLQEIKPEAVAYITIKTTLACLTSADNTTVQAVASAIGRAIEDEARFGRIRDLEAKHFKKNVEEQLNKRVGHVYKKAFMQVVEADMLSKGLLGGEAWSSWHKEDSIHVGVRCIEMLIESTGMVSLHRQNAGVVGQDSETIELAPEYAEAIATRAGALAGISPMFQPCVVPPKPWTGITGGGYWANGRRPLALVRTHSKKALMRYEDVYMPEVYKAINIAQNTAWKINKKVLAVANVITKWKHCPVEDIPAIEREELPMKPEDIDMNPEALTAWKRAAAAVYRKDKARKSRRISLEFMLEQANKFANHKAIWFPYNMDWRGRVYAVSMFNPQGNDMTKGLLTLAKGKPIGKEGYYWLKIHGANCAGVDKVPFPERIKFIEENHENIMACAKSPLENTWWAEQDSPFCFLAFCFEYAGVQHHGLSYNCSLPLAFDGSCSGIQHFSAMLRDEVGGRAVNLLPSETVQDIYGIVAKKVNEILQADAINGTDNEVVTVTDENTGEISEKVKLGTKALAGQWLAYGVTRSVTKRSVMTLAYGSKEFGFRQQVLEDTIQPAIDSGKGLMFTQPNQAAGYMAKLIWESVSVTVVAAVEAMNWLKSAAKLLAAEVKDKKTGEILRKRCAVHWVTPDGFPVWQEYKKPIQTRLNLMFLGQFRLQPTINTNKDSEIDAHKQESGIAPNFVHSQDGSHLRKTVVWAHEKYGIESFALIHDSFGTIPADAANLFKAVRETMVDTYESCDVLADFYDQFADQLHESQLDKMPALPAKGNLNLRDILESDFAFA
Description: PCR was performed by using the following materials (96° C. for one minute, 55° C. for 30 seconds, and 72° C. for one minute for one cycle, and 96° C. for 30 seconds, 55° C. for 30 seconds, 72° C. for one minute for 24 cycles), and the resulting PCR product (amplified DNA fragment of human thyroid stimulating hormone (TSH) β-subunit) was used as a template DNA.
Each material in a predetermined amount was added to a sample tube, filled up to a total volume of 10 μl with EXTaq buffer (Takara Shuzo), and used as a PCR mixture.
The template DNA (10 ng) was added to a sample tube containing each of the terminators, guanosine-5′-triphosphate (rGTP), uridine-5′-triphosphate (rUTP), adenosine-5′-triphosphate (rATP), and cytidine-5′-triphosphate (rCTP), MgCl2, spermidine-(HCl)3, dithiothreitol (DTT), Tris/HCl (pH 7.5), yeast inorganic pyrophosphatase (PPase) and T7 RNA polymerase in such amounts as their final concentrations should be as follows, filled up to a total amount of 10 μl with distilled water, and used as a sample.
After 30 minutes incubation of the sample at 37° C., the terminators not incorporated were removed by gel filtration using a Sephadex G25 column (Pharmacia), and the precipitates were collected by centrifugal separation. […] After cooling, 2 μl of the solution was applied to 4% sequencing gel, and electrophoresed on ABI377 fluorescence automatic sequencer (ABI). […]

[8] = 150 μM XR-3′dCTP(n=1), 25 units polymerase, 37° C., 1 hour

T7 RNA polymerase, sequence (P00573 whole entry): as above

Row | Compound | Relative activity of RNA polymerase for 3′-dATP [2] | ability for incorporating 3′-dATP, 3′-dGTP, 3′-dCTP, 3′-dUTP and derivatives thereof [3] | RNA synthesis activity [4] | further results
1 | Nc1ncnc2c1ncn2[C@@H]1O[C@H](COP(=O)(O)OP(=O)(O)OP(=O)(O)O)C[C@H]1O [3′-dATP] | – | – | – | order of incorporation rate of 3′-dNTP by T7 RNA polymerase [1]: 3′-dGTP>3′-dATP, 3′-dUTP>3′-dCTP
2 | Nc1ccn([C@@H]2O[C@H](COP(=O)(O)OP(=O)(O)OP(=O)(O)O)C[C@H]2O)c(=O)n1 [3′-dCTP] | – | – | – | order of incorporation rate of 3′-dNTP by T7 RNA polymerase [1]: 3′-dGTP>3′-dATP, 3′-dUTP>3′-dCTP
3 | Nc1nc2c(ncn2[C@@H]2O[C@H](COP(=O)(O)OP(=O)(O)OP(=O)(O)O)C[C@H]2O)c(=O)[nH]1 [3′-dGTP] | – | – | – | order of incorporation rate of 3′-dNTP by T7 RNA polymerase [1]: 3′-dGTP>3′-dATP, 3′-dUTP>3′-dCTP
4 | O=c1ccn([C@@H]2O[C@H](COP(=O)(O)OP(=O)(O)OP(=O)(O)O)C[C@H]2O)c(=O)[nH]1 [3′-dUTP] | – | – | – | order of incorporation rate of 3′-dNTP by T7 RNA polymerase [1]: 3′-dGTP>3′-dATP, 3′-dUTP>3′-dCTP
5 | F644Y/L665P: mutant T7 RNA polymerase with mutations F644Y and L665P | 5.130 | marked improvement; also recorded: comparable to that of the F644Y mutant | maintained sufficient RNA synthesis activity | –
6 | F644Y: mutant T7 RNA polymerase in which F (phenylalanine) residue 644 was replaced with Y (tyrosine) | 5.130 | marked improvement; also recorded: markedly improved ability | maintained sufficient RNA synthesis activity | sequence ladder length compared with that afforded by the wild type T7 RNA polymerase [5, 8]: 3 times; transcription product length confirmed [5, 8]: about 700 bases; incorporation efficiency for 3′-dCTP derivatives [5]: improved the incorporation efficiency; bias of incorporation observed in the wild type [3]: markedly reduced; peak intensity in comparison with the wild type T7 RNA polymerase [6]: higher peak intensity with less fluctuation; sequence reading [6]: sequence reading was possible
7 | F646Y: mutant T7 RNA polymerase in which F646 was replaced with Y | 0.459 | no improvement | maintained RNA synthesis activity | –
8 | F733Y: mutant T7 RNA polymerase in which F733 was replaced with Y | 1.075 | slightly improved ability | slightly decreased RNA synthesis activity | –
9 | F782Y: mutant T7 RNA polymerase in which F782 was replaced with Y | 1.173 | slightly improved ability | maintained RNA synthesis activity | –
10 | L665P/F667Y: mutant T7 RNA polymerase with mutations L665P and F667Y; labelled F667Y in FIGS. 29, 31, 32 | 4.711 | marked improvement; also recorded: markedly improved ability | maintained sufficient RNA synthesis activity | incorporation efficiency for 3′-dCTP derivatives [5]: improved the incorporation efficiency; bias of incorporation observed in the wild type [3]: markedly reduced; peak intensity in comparison with the wild type T7 RNA polymerase [6]: higher peak intensity with less fluctuation; sequence reading [6]: sequence reading was possible
11 | TMR-labeled 3′-deoxyuridine-5′-triphosphate [TMR-3′dUTP(n4)] | – | – | – | termination pattern / incorporation efficiency [7]: difference is not recognized
12 | TMR-labeled 3′-deoxyuridine-5′-triphosphate [TMR-Allyl-3′dUTP(n4)] | – | – | – | termination pattern / incorporation efficiency [7]: incorporated as efficiently as TMR-3′dUTP(n4)
13 | Wild type: wild type T7 RNA polymerase, 883 amino acid residues [reference compound] | 1.000 | – | sufficient RNA synthesis activity | sequence reading [6]: almost impossible; also recorded: sequencing was not performed correctly
14 | Y639F: Y639F mutant of T7 RNA polymerase, at a location corresponding to Y526 of T7 DNA polymerase, described in the literature [reference compound] | 0.930 | no improvement | maintained RNA synthesis activity | –
